From patent US12195473B2, “KRAS mutant protein inhibitors” (JACOBIO PHARMACEUTICALS CO., LTD, priority 2019, dated 2025)
Where two headings read alike, the source gives them in different places. Values belong to the compound of their own block, whether it stands above or below them.

Legend:
[1] = system: NCI-H358 cells expressing KRAS G12C; assay: Phospho-ERK1/2(THR202/TYR204) HTRF assay; type: cell-based; conditions: 2 hours incubation, read-out: p-ERK IC50
Method: NCI-H358 cells expressing KRAS G12C were cultured in RPMI 1640 medium (Gibco) containing 10% fetal bovine serum (Gibco). The NCI-H358 cells in culture medium were seeded in 96-well plates at a concentration of 40,000 cells/well and then put in a 37° C./5% CO2 cell incubator to incubate overnight. The next day, culture medium was removed and the compound diluted in assay medium (RPMI 1640, 0.1% FBS) was added in each well. After 2 hours incubation in a 37° C./5% CO2 cell incubator, the assay medium in 96-well plates was removed, then 50 μL of 1× blocking reagent-supplemented lysis buffer (Cisbio) was added and the plates were incubated at 25° C. for 45 min with shaking. 10 μL of cell lysates from the 96-well plates were transferred to a 384-well plate (Greiner) containing 2.5 μL/well HTRF® pre-mixed antibodies (Cisbio 64AERPEH). Incubate 4 hours at 25° C. and then read HTRF signals on Tecan Spark multimode microplate reader. The data were analyzed using a 4-parameter logistic model to calculate IC50 values.

[2] = Mouse pharmacokinetic study; type: in vivo, Balb/c mouse; conditions: plasma, Balb/c mouse (female); for clearance / Vd: 3 mg/kg, iv; for Vd: read-out: Vss; for Cmax / AUC(0-t) / bioavailability: 10 mg/kg, po; for AUC(0-t): read-out: AUC0-24 h; for bioavailability: read-out: Oral BA (F %)
Method: 3. Mouse Pharmacokinetic Study
The purpose of this study was to evaluate the pharmacokinetic properties of compounds in Balb/c mouse (♀) following single dose administration. The day before administration, mice were fasted overnight and free access to water. Six mice were needed for each compound and the six mice were divided into two groups (n=3/group), group A and group B. Mice in group A were treated with a single 3 mg/kg dose of compound (iv). Mice in group B were treated with a single 10 mg/kg dose of compound (po). For each mouse in group A, blood samples were collected at pre-dose, and at the time point of 0.083, 0.25, 0.5, 1, 2, 4, 6, 8 and 24 h post-dose. For each mouse in group B, blood samples were collected at pre-dose, and at the time point of 0.25, 0.5, 1, 2, 3, 4, 6, 8 and 24 h post-dose. Blood samples were placed on ice until centrifugation to obtain plasma samples. The plasma samples were stored at −80° C. until analysis. The concentration of compound in plasma samples were determined using a LC-MS/MS method.

[3] = Dog pharmacokinetic study; type: in vivo, beagle dog; conditions: for clearance / Vd / AUC(0-t) / Cmax / bioavailability / CL / VSS / AUC0-24 h / Oral BA (F %): beagle dog; for clearance / Vd / CL / VSS: 1 mg/kg, iv; for Vd: read-out: VSS; for AUC(0-t) / Cmax / bioavailability / AUC0-24 h / Oral BA (F %): 10 mg/kg, po; for AUC(0-t): read-out: AUC0-24 h; for bioavailability: read-out: Oral BA (F %)
Method: 4. Dog Pharmacokinetic Study
The purpose of this study was to evaluate the pharmacokinetic properties of compounds in beagle dog following single dose administration. The day before administration, dogs were fasted overnight and free access to water. Four beagle dogs were needed for each compound and the four dogs were divided into two groups (one male (♂) and one female (♀) in each group). Dogs in group A were treated with a single 1 mg/kg dose of compound (iv). Dogs in group B were treated with a single 10 mg/kg dose of compound (po). For dogs in group A, blood samples were collected at pre-dose, and at the time point of 0.083, 0.25, 0.5, 1, 2, 4, 6, 8 and 24 h. For dogs in group B, blood samples were collected at pre-dose, and at the time point of 0.25, 0.5, 1, 2, 4, 6, 8 and 24 h post-dose. Blood samples were placed on ice until centrifugation to obtain plasma samples. The plasma samples were stored at −80° C. until analysis. The concentration of compound in plasma samples were determined using a LC-MS/MS method.

HIS-KRAS (G12C) = type: biochemical; conditions: read-out: SOS1 catalyzed nucleotide exchange IC50
[4] = Cynomolgus monkey pharmacokinetic study; type: in vivo; conditions: for CL / VSS / AUC0-24 h / Cmax / Oral BA (F %): Cynomolgus monkey; for CL / VSS: 1 mg/kg, iv; for AUC0-24 h / Cmax / Oral BA (F %): 3 mg/kg, po
Method: 5. Cynomolgus Monkey Pharmacokinetic Study
The purpose of this study was to evaluate the pharmacokinetic properties of compounds in Cynomolgus monkey following single dose administration. The day before administration, monkeys were fasted overnight and free access to water. Four monkeys are needed for each compound and the four monkeys were divided into two groups (one male(♂) and one female (♀) in each group), group A and group B. Monkeys in group A were treated with a single 1 mg/kg dose of compound (iv). Monkeys in group B were treated with a single 3 mg/kg dose of compound (po). For monkeys in group A, blood samples were collected at pre-dose, and at the time point of 0.083, 0.25, 0.5, 1, 2, 4, 6, 8 and 24 h. For monkeys in group B, blood samples were collected at pre-dose, and at the time point of 0.25, 0.5, 1, 2, 4, 6, 8 and 24 h post-dose. Blood samples were placed on ice until centrifugation to obtain plasma samples. The plasma samples were stored at −80° C. until analysis. The concentration of compound in plasma samples were determined using a LC-MS/MS method.

NCI-H1373 cells = assay: Efficacy in NCI-H1373 xenograft model; type: in vivo, BALB/c nude mice
Method: 6. The Efficacy in NCI-H1373 Xenograft Model
NCI-H1373 cells (5.0E+06 cells) were injected subcutaneously into the right flank of female BALB/c nude mice (6-8 weeks) in a mixture with PBS and Matrigel (Corning) (PBS/Matrigel=1:1 (v/v)). Mice were monitored daily and caliper measurements began when tumors became visible. Tumor volume was calculated by measuring two perpendicular diameters using the formula: (L*W^2)/2 in which L and W refer to the length and width tumor diameter, respectively. When the average tumor volume reached 150-200 mm^3, mice were grouped randomly (n=6/group) and treated with compounds. Tumor volume and mice weight was measured twice a week during treatment (˜ 3 weeks). […] The results are in the following Table 13 and FIG. 8: […]

[5] = Safety exploration in MIA PaCa-2 xenograft model; type: in vivo; conditions: MIA PaCa-2 xenograft mice, 400 mg/kg, po, QD, 22 days
Method: 7. Safety Exploration in MIA PaCa-2 xenograft Model
. Mice were monitored daily and caliper measurements began when tumors became visible. Tumor volume was calculated by measuring two perpendicular diameters using the following formula: (L*W^2)/2 in which L and W refer to the length and width tumor diameter, respectively. After mice were grouped to study the efficacy, the remaining mice (n=6) were used to explore the safety. The mice were treated with 400 mg/kg compound 1-2 (po, QD) for 22 days, and mice body weight was measured twice a week during treatment. […]

IC50 ([1]; Homo sapiens): 29.9 nM | clearance [2]: 72 mL/min/kg | Vd [2]: 2.6 L/kg | Cmax [2]: 901 ng/mL | AUC(0-t) [2]: 1030 ng·h/mL | bioavailability [2]: 44% | clearance ([3]; plasma, female): 15.5 mL/min/kg | Vd ([3]; plasma, female): 0.543 L/kg | AUC(0-t) ([3]; plasma, female): 1330 ng·h/mL | Cmax ([3]; plasma, female, read-out: Cmax): 2580 ng/mL | bioavailability ([3]; plasma, female): 12.4% | clearance ([3]; plasma, male): 11.8 mL/min/kg | Vd ([3]; plasma, male): 0.412 L/kg | AUC(0-t) ([3]; plasma, male): 2940 ng·h/mL | Cmax ([3]; plasma, male, read-out: Cmax): 3690 ng/mL | bioavailability ([3]; plasma, male): 20.9%
SMILES: C=CC(=O)N1CCN(c2c(C#N)c(=O)n(-c3c(C)ccnc3C(C)C)c3nc(-c4ccccc4F)c(Cl)cc23)CC1 [Amgen 6, 4-(4-acryloylpiperazin-1-yl)-6-chloro-7-(2-fluorophenyl)-1-(2-isopropyl-4-methylpyridin-3-yl)-2-oxo-1,2-dihydro-1,8-naphthyridine-3-carbonitrile]

SMILES: C=CC(=O)N1CCN(c2c(C#N)c(=O)n(-c3c(C)ccnc3C(C)C)c3nc(-c4c(N)c(F)c(F)c(F)c4F)c(Cl)cc23)CC1 (atropisomer, axis not shown; (P)) [Compound 1-1, (P)-4-(4-acryloylpiperazin-1-yl)-7-(2-amino-3,4,5,6-tetrafluorophenyl)-6-chloro-1-(2-isopropyl-4-methylpyridin-3-yl)-2-oxo-1,2-dihydro-1,8-naphthyridine-3-carbonitrile]
IC50 (HIS-KRAS (G12C)): 14.1 nM | IC50 [1]: 176 nM

SMILES: C=CC(=O)N1CCN(c2c(C#N)c(=O)n(-c3c(C)ccnc3C(C)C)c3nc(-c4c(N)c(F)c(F)c(F)c4F)c(Cl)cc23)CC1 (atropisomer, axis not shown; (M)) [Compound 1-2, (M)-4-(4-acryloylpiperazin-1-yl)-7-(2-amino-3,4,5,6-tetrafluorophenyl)-6-chloro-1-(2-isopropyl-4-methylpyridin-3-yl)-2-oxo-1,2-dihydro-1,8-naphthyridine-3-carbonitrile]
IC50 [1]: 10.2 nM | Pharmacokinetic properties (in words) ([3]; beagle dog model, compared with Amgen 6 and 6.3): excellent pharmacokinetic properties | CL ([3]; female): 18.1 mL/min/kg | VSS ([3]; female): 1.1 L/kg | AUC0-24 h ([3]; female): 5953 ng·h/mL | Cmax ([3]; female): 2980 ng/mL | Oral BA (F %) ([3]; female): 65.1% | CL ([3]; male): 15.9 mL/min/kg | VSS ([3]; male): 0.9 L/kg | AUC0-24 h ([3]; male): 6724 ng·h/mL | Cmax ([3]; male): 3420 ng/mL | Oral BA (F %) ([3]; male): 64.3% | CL ([4]; female): 7.19 mL/min/kg | VSS ([4]; female): 0.86 L/kg | AUC0-24 h ([4]; female): 6854 ng·h/mL | Cmax ([4]; female): 2680 ng/mL | Oral BA (F %) ([4]; female): 98.9% | CL ([4]; male): 5.25 mL/min/kg | VSS ([4]; male): 0.61 L/kg | AUC0-24 h ([4]; male): 7938 ng·h/mL | Cmax ([4]; male): 2030 ng/mL | Oral BA (F %) ([4]; male): 83.5% | Pharmacokinetic properties (in words) ([4]; monkey model): excellent pharmacokinetic properties | TGI % (NCI-H1373 cells; 10 mg/kg, QD, Day 21): 103% | Tumor volume at the end (Day 21) (NCI-H1373 cells; 10 mg/kg, QD, start volume 193 mm^3): 144 mm^3 | Efficacy in vivo (in words) (NCI-H1373 cells; Table 13 and FIG. 8): excellent efficacy in vivo | Safety (mice body weight, FIG. 9) [5]: good safety

SMILES: C=CC(=O)N1CCN(c2c(C#N)c(=O)n(-c3c(C(C)C)ncnc3C(C)C)c3nc(-c4c(N)cccc4F)c(Cl)cc23)CC1 [Amgen 6.3, 4-(4-acryloylpiperazin-1-yl)-7-(2-amino-6-fluorophenyl)-6-chloro-1-(4,6-diisopropylpyrimidin-5-yl)-2-oxo-1,2-dihydro-1,8-naphthyridine-3-carbonitrile]
IC50 (HIS-KRAS (G12C); GDP-loaded HIS-KRAS (G12C), 1 hour pre-incubation with compound, TR-FRET): 2.77 nM | IC50 ([1]; Homo sapiens): 20.1 nM | clearance [2]: 32 mL/min/kg | Vd [2]: 1.4 L/kg | Cmax [2]: 1590 ng/mL | AUC(0-t) [2]: 1660 ng·h/mL | bioavailability [2]: 32% | clearance ([3]; plasma, female): 329 mL/min/kg | Vd ([3]; plasma, female): 3.1 L/kg | clearance ([3]; plasma, male): 239 mL/min/kg | Vd ([3]; plasma, male): 2.3 L/kg | AUC(0-t) ([3]; plasma, male): 5.1 ng·h/mL | Cmax ([3]; plasma, male, read-out: Cmax): 8 ng/mL | bioavailability ([3]; plasma, male): 0.7%
